The viability is a read-out of living cells in per cent, often relative to untreated cells. The melting point is the temperature, or range, at which the solid turns liquid.

This note sets out measurements from article PMC8156206, “Novel N,N′-Disubstituted Selenoureas as Potential Antioxidant and Cytotoxic Agents” (Antioxidants, 2021).

Series [1] has as its system HTB-54 cells (lung adenocarcinoma). The experiment in a line: MTT cell viability assay, HTB-54. It is filed as cell-based, human. Conditions: Homo sapiens, 48 h, MTT, read-out: cell viability, percentage of live cells; for viability at 10 µM: HTB-54, 10 µM; for viability at 50 µM: HTB-54, 50 µM. As to the method:
(§1) Cell lines were purchased from the American Type Culture Collection (ATCC). MCF-7, HTB-54, BEAS-2B and 184B5 cell lines were grown in RPMI 1640 medium (Gibco) supplemented with 10% fetal bovine serum (FBS; Gibco), 100 units/mL penicillin, and […] streptomycin (Gibco). HT-29 and HCT-116 cell lines was cultured in McCoy’s 5A (Gibco), 10% FBS, 100 units/mL penicillin, and 100 μg/mL streptomycin. Cells were maintained at 37 °C and 5% CO2. Culture medium was replaced every three days.
(§2) A cell viability assay of each compound was carried out using an MTT assay. Each selenourea was dissolved in dimethyl sulfoxide (DMSO) at a concentration of 0.01 M. Serial dilutions were prepared with non-supplemented culture medium. Cytotoxic activity of each selenourea was determined at two different concentrations (10 and 50 µM) in MCF-7, HTB-54, and HT-29 cells. In addition, selected compounds were tested at seven different concentrations (0.1, 1, 5, 10, 25, 50, 100 µM) on MCF-7, HT-29, HCT-116, HTB-54, 184B5, and BEAS-2B cells. The number of passages before defrosting the cells was 3, and they were kept under culture up to a maximum of 15.
(§3) Briefly, 1 × 10^4 cells/well were grown in 96-well plates for 24 h. Then, these cells were incubated with either DMSO (negative control) at 5 µM or a different concentration of each tested selenourea for 48 h. A volume of 20 µL of MTT was added 150 min before the termination point to measure cellular viability. After this time, culture medium was removed. The resultant formazan crystals were dissolved in 50 µL of DMSO, and absorbance was measured at 570 nm. Results are expressed as IC50, the half maximal inhibitory concentration. This value was calculated using GraphPad Prism 7 software by nonlinear curve fitting. Furthermore, the selectivity index (SI) was calculated as the ratio of the IC50 values determined for the non-malignant and the tumoral cells (IC50 (184B5)/IC50 (MCF-7) or (IC50 (BEAS-2B)/IC50 (HTB-54). Data were obtained from at least three independent experiments performed in triplicates.
(§4) The cytotoxic effects of synthesized compounds were evaluated against three human cancer cell lines: breast adenocarcinoma (MCF-7), lung adenocarcinoma (HTB-54), and colon carcinoma (HT-29), using a 3-[4,5-dimethylthiazol-2-yl]-2,5-diphenyltetrazolium bromide (MTT) assay. Firstly, the compounds were screened at two doses (50 and 10 µM) and after 48 h of treatment. The results are summarized in Figure 4 and are presented as percentages of growth inhibition related to control.

Series [2] has as its system HT-29 cells (colon carcinoma). The series is described as follows: MTT cell viability assay, HT-29. The class given is cell-based. Conditions: Homo sapiens, 48 h, MTT, read-out: cell viability, percentage of live cells; for viability at 10 µM: HT-29, 10 µM; for viability at 50 µM: HT-29, 50 µM. The protocol:
as §1, §2, §3, §4
In general terms: Tetrazolium assays rely on reduction of a dye to a coloured formazan, in cell work by metabolically active cells.

Series [3] deals with MCF-7 cells (breast adenocarcinoma). The experiment in a line: MTT cell viability assay, MCF-7. It is filed as cell-based, human. The conditions noted are these: Homo sapiens, MCF7, 48 h, MTT, read-out: cell viability, percentage of live cells; for viability at 10 µM: MCF-7, 10 µM; for viability at 50 µM: MCF-7, 50 µM. The protocol: as §1, §2, §3, §4
The nature of series [4]: DPPH radical scavenging assay. The conditions noted are these: for DPPH radical scavenging kinetics: 0.03 mg/mL, time-point 0 min. As to the method:
From all the methods available for the prediction of the antioxidant properties, DPPH^● and ABTS^●+ assays were chosen according to their simplicity, accessibility, and effectiveness for a fast prediction of radical scavenging activities in vitro. The radical scavenging capacity of the novel selenoureas was determined by DPPH^● and ABTS^●^+ assays. Measurements were recorded on a BioTeck PowerWave XS spectrophotometer (BioTeck Instruments, Winooski (VT), USA) and the data were collected using KCJunior software (BioTeck Instruments, Winooski (VT), USA).
A DPPH assay was performed, as described by Svinyarov. Stock solutions of 1 mg/mL were initially prepared for each selenourea in methanol and this solution was used for the preparation of the different concentrations employed in the assay. Ascorbic acid (Asc) was used as positive control due to the literature reports that this derivative is a potent antioxidant and radical scavenger. A volume of 100 µL from a previously prepared stock solution (preserved in dark and daily prepared) of DPPH (100 µM) in methanol were added to 100 µL of the methanolic selenoureas solutions prepared previously, and the antioxidant activity these compounds was assessed by its ability to decolorize DPPH● radical (purple color in methanol) to DPPHH (colorless). Thus, radical scavenging activity was estimated by the decrease in the absorbance at 517 nm. Determinations were recorded at different time-points. All the measurements were carried out in triplicate. Results are expressed as the percentage of the radicals scavenged, calculated using the following formula:(1) % DPPH radical scavenging=Acontrol − Asample/Acontrol × 100 where Acontrol refers to the absorbance of the negative control and Asample refers to the absorbance of the tested compounds. Results are expressed as percentage of DPPH radical scavenging ± SD.
In order to determine the radical scavenging of these newly synthesized selenourea derivatives, the DPPH assay was firstly employed. Measurements were performed at four different concentrations ranging from 0.0003 to 0.03 mg/mL, and collected at time-points between 0 min and 120 min (Figures S81–S100). Results are presented as the percentage of inhibition for DPPH radical scavenging activity.
(In general: The DPPH test is a chemical assay of radical scavenging.)

Molecules are shown by their SMILES.

As for `[Se]=C(NCc1ccco1)Nc1ccccc1` [Compound 1a], the melting point was 109 °C. For the same compound, in series [1], the viability at 10 µM was determined as 63.5% and the viability at 50 µM stood at 20.5%. Further, in series [2], the viability at 10 µM worked out at 70.4% and the viability at 50 µM is 44.6%. Further, in series [3], the viability at 10 µM is 75.7% and the viability at 50 µM came to 32.3%.
As to `Cc1ccc(NC(=[Se])NCc2ccco2)cc1` [Compound 1b], the viability at 10 µM in series [1] came to 52.1%; in series [2], 66.2%; in series [3], 64.8%. Further, the viability at 50 µM in series [1] came out at 21.6%; in series [2], 43.1%; in series [3], 12.4%.
In turn, `COc1ccc(NC(=[Se])NCc2ccco2)cc1` [Compound 1c] returned a melting point of 128 °C. Further, in series [1], the viability at 10 µM was determined as 55.7% and the viability at 50 µM was found to be 28.8%. Besides, in series [2], the viability at 10 µM came to 70.5% and the viability at 50 µM is 39.1%. Further, in series [3], the viability at 10 µM stood at 64% and the viability at 50 µM is 21.5%.
On to `Cc1ccc(NC(=[Se])NCc2nccs2)cc1` [Compound 2b], for which the melting point amounted to 154 °C. In series [1], the viability at 10 µM was 53.1% and the viability at 50 µM was 18.1%. Further, in series [4] (at lower concentrations), the “DPPH radical scavenging capacity compared with ascorbic acid” value is given as “greater radical scavenging capacity than ascorbic acid”. Moreover, in series [2], the viability at 10 µM worked out at 88.3% and the viability at 50 µM is 49.6%. For the same compound, in series [3], the viability at 10 µM worked out at 65.5% and the viability at 50 µM was found to be 16.8%.
Turning to `Cc1ccc(NC(=[Se])Nc2ccc3oc(=O)ccc3c2)cc1` [Compound 3b], the melting point worked out at 145 °C. In addition, in series [1], the viability at 10 µM stood at 62.9% and the viability at 50 µM came to 27.3%. Also, in series [4], the “DPPH radical scavenging kinetics” value is “reaching the maximum activity at time-point 0′”. Besides, in series [2], the viability at 10 µM came to 57.1% and the viability at 50 µM came to 46.1%. For the same compound, in series [3], the viability at 10 µM is 73.8% and the viability at 50 µM was determined as 29.2%.
On to `COc1ccc(NC(=[Se])Nc2ccc3oc(=O)ccc3c2)cc1` [Compound 3c], for which the melting point came out at 159 °C. In series [1], the viability at 10 µM stood at 61.6% and the viability at 50 µM was 9.7%. The “DPPH radical scavenging kinetics” value in series [4] is listed as “reaching the maximum activity at time-point 0′”. In series [2], the viability at 10 µM turned out to be 58.2% and the viability at 50 µM worked out at 34.3%. In addition, in series [3], the viability at 10 µM turned out to be 73.9% and the viability at 50 µM amounted to 17.4%.
`O=c1ccc2cc(NC(=[Se])Nc3ccc(Cl)cc3)ccc2o1` [Compound 3d] returned a melting point of 156 °C. Besides, in series [1], the viability at 10 µM turned out to be 70.1% and the viability at 50 µM worked out at 14%. Moreover, the “DPPH radical scavenging kinetics” value in series [4] is on record as “reaching the maximum activity at time-point 0′”. Further, in series [2], the viability at 10 µM stood at 59.1% and the viability at 50 µM came to 35.7%. Besides, in series [3], the viability at 10 µM came out at 69.7% and the viability at 50 µM stood at 28.6%.
`CCCCNC(=[Se])Nc1ccc(Cl)cc1` [Compound 4d] had a melting point of 116 °C. Also, in series [1], the viability at 10 µM stood at 58.1% and the viability at 50 µM turned out to be 38%. Further, in series [2], the viability at 10 µM came to 64.4% and the viability at 50 µM came out at 46%. For the same compound, in series [3], the viability at 10 µM turned out to be 50.3% and the viability at 50 µM amounted to 34.1%.
`CCCCCCNC(=[Se])Nc1ccc(OC)cc1` [Compound 5c] yielded a melting point of 97 °C. Moreover, in series [1], the viability at 10 µM was determined as 70.4% and the viability at 50 µM turned out to be 10.7%. Besides, in series [2], the viability at 10 µM was found to be 62.6% and the viability at 50 µM was 31.1%. In series [3], the viability at 10 µM was determined as 60.1% and the viability at 50 µM worked out at 8.1%.
